Laboratory results reported in ChEMBL document CHEMBL1201862, “PubChem BioAssay data set” (2004).
Activity calls are given as the source filed them.

Tests used:
[1] = target: E3 ubiquitin-protein ligase Mdm2 (Homo sapiens, UniProt Q00987); assay: enhancers of MDM2-luciferase reporter signal, concentration-effect titration, project on inhibitors of MDM2 ubiquitin ligase, cellular assay, luminescent readout, 384-well plate format (AID 1394); assay type: functional;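 note: MDM2 E3 inhibitors raise luminescence so EC50 is for signal enhancement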
Chain of E3 ubiquitin-protein ligase Mdm2 (Q00987 whole entry): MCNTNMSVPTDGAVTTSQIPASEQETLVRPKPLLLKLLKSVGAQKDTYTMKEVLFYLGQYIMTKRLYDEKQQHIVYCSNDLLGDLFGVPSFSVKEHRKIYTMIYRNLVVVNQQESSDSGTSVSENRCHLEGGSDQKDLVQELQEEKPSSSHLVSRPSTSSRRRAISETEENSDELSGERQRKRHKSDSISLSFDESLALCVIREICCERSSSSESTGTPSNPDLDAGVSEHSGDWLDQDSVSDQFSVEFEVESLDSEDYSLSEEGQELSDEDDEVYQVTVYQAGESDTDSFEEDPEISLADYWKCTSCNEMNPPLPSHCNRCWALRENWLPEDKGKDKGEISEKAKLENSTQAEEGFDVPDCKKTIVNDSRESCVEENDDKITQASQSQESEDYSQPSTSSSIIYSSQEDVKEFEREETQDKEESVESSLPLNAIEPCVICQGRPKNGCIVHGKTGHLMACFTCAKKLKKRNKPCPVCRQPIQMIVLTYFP

[2] = target: T1, Bifunctional protein GlmU (Mycobacterium tuberculosis, UniProt P9WMN3); assay: Inhibitors of Mycobacterial Glucosamine-1-phosphate acetyl transferase (GlmU). Secondary screen.; set-up: species or system Mycobacterium tuberculosis H37Rv
T1 sequence (P9WMN3 whole entry): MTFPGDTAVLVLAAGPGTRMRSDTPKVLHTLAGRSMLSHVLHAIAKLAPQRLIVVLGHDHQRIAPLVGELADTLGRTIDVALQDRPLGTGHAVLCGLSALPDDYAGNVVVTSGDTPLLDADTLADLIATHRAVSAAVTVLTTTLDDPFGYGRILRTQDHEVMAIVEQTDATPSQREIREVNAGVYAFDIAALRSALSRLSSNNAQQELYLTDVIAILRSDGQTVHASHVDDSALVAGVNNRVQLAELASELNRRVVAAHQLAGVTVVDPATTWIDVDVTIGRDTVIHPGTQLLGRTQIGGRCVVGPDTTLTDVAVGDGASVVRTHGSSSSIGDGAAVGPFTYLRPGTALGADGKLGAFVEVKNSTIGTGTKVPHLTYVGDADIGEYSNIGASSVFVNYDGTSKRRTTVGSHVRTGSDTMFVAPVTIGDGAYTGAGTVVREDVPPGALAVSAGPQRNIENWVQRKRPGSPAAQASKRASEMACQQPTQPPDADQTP

Troponin, cardiac muscle = Troponin, cardiac muscle (Homo sapiens, UniProt P19429+P45379+P63316); assay: Fluorescence-based biochemical high throughput dose response assay for activators of the calcium sensitivity of cardiac Regulated Thin Filaments (RTF). [Related pubchem assays (depositor defined):AID493008, AID493018, AID504382, AID504383]; assay type: protein-complex assay
Protein skinhead-1 = target: T2, Protein skinhead-1 (Caenorhabditis elegans, UniProt P34707); assay type: functional
T2 sequence (P34707 whole entry): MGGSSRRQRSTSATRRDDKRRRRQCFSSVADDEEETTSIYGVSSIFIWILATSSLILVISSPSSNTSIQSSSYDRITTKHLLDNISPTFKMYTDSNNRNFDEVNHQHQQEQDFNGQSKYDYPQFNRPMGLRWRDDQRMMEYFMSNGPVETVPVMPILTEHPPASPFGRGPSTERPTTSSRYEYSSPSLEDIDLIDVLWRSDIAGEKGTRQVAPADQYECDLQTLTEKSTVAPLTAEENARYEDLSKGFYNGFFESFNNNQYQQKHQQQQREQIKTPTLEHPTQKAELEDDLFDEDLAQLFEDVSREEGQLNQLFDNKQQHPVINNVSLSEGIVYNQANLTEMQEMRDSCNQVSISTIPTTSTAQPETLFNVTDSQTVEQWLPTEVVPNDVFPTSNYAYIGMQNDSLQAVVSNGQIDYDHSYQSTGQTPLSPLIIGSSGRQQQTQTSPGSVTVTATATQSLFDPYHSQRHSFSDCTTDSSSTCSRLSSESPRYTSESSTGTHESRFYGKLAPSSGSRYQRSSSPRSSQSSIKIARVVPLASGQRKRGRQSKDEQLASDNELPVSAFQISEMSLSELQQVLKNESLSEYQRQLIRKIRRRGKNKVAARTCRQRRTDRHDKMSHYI

[3] = target: T3, Rac GTPase-activating protein 1 (Homo sapiens, UniProt Q9H0H5); assay: MgcRacGAP GTPase-activating activity inhibitors, confirmation, biochemical, ADP Hunter fluorescence, primary and confirmatory (AID 624330); assay type: functional
T3 sequence (Q9H0H5 whole entry): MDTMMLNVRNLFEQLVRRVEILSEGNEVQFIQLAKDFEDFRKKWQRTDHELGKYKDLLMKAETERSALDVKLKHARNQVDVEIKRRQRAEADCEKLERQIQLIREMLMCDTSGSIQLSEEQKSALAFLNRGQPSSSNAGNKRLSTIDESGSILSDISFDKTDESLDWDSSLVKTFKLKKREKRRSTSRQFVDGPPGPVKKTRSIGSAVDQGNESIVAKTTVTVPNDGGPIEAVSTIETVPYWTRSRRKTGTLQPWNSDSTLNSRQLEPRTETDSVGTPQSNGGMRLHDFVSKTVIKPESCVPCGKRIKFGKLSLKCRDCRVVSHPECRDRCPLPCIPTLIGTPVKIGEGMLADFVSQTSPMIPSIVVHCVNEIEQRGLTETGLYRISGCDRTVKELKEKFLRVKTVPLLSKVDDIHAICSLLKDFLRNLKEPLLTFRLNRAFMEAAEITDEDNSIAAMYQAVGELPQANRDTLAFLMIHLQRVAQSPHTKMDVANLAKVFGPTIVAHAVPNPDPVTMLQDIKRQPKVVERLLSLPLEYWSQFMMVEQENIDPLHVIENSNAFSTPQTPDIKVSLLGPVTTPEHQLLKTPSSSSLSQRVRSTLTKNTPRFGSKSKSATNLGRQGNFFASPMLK

[4] = target: T4, Delta-type opioid receptor (Homo sapiens, UniProt P41143); assay: HTS Image-Based Screen for Antagonists of the DOR Receptor. [Related pubchem assays (depositor defined):AID1777, AID1785, AID1786, AID2133]; assay type: functional
T4 sequence (P41143 whole entry): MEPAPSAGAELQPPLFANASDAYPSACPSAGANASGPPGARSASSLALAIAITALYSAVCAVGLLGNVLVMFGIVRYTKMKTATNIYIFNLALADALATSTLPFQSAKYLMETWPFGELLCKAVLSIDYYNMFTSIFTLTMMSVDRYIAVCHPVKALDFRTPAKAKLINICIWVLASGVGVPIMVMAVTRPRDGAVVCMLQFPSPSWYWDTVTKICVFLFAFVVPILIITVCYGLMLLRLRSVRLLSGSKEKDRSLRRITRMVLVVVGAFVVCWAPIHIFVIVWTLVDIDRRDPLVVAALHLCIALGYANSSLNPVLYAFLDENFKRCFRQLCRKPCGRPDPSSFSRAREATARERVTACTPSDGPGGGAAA

Mu-type opioid receptor = Mu-type opioid receptor (Homo sapiens, UniProt P35372); assay: HTS Image-Based Screen for Agonists of the MOR Receptor. [Related pubchem assays (depositor defined):AID1777, AID1785, AID1786, AID2133]; assay type: functional;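 note: imaging of beta-arrestin GFP recruitment into spots after receptor activation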
Chain of Mu-type opioid receptor (P35372 whole entry): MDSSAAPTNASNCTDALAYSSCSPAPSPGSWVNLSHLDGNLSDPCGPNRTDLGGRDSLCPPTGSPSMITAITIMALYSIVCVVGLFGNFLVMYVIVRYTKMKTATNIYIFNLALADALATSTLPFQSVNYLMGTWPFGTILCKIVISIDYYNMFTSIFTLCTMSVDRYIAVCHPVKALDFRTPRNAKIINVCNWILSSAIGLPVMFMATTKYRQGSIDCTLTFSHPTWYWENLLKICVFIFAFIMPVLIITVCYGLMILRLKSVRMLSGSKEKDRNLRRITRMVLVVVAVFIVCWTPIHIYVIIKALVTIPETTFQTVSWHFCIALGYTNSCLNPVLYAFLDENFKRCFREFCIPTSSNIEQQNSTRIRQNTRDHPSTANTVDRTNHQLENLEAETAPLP

[5] = target: T4, Delta-type opioid receptor; assay: HTS Image-Based Screen for Agonists of the DOR Receptor. [Related pubchem assays (depositor defined):AID1777, AID1786, AID2133]; assay type: functional
[6] = target: T5, Kappa-type opioid receptor (Homo sapiens, UniProt P41145); assay type: functional
T5 sequence (P41145 whole entry): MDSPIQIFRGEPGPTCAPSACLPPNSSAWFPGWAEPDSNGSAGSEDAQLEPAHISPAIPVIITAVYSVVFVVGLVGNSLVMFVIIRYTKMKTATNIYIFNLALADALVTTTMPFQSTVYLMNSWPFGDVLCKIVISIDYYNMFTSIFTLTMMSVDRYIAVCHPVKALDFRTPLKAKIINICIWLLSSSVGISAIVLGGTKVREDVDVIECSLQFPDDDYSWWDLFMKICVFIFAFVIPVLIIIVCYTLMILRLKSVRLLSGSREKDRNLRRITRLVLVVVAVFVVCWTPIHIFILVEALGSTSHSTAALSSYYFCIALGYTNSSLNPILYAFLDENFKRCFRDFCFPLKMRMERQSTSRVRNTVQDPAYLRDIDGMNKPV

Beta-galactosidase [7] = target: T6, Beta-galactosidase (Escherichia coli, UniProt Q8VNN2); assay type: functional
T6 sequence (Q8VNN2 whole entry): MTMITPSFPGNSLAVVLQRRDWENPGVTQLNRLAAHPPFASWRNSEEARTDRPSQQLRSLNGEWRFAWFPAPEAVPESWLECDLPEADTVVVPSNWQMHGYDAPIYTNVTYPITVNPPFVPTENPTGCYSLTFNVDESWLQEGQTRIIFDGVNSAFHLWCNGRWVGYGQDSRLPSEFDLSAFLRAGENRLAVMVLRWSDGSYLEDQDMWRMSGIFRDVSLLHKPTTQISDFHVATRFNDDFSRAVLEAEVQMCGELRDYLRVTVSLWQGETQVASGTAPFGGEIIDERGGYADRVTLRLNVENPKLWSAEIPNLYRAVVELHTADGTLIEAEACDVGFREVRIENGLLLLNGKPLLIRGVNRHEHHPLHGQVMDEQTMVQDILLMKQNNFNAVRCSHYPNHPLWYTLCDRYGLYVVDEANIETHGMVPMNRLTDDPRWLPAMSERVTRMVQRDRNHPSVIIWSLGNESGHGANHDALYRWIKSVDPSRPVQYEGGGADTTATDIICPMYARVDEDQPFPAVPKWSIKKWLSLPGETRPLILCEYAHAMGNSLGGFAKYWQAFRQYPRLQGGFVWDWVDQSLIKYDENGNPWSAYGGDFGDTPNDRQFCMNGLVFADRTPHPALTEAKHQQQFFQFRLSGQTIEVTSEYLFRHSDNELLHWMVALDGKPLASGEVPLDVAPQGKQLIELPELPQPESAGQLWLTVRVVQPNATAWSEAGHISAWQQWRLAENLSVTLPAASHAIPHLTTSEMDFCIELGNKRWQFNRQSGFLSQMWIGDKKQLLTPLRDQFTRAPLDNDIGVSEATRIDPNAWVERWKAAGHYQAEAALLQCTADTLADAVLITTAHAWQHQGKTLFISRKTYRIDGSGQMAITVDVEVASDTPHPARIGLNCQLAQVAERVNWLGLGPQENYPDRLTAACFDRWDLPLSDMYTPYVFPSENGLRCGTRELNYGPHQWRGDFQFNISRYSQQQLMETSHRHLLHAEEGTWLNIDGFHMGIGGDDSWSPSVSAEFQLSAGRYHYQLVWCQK

[8] = target: T5, Kappa-type opioid receptor; assay type: functional; remark: listed apart in the source
HEK293 [9] = assay: NOD1 signaling inhibitors, primary screen, cell-based, luminescence, uHTS (AID 1578); assay type: functional; details: Homo sapiens
[10] = tested on: Streptococcus sp. 'group A'; assay: growth inhibition of control SK(-) GAS strain, dose response, counter-screen for streptokinase expression inhibitor project, luminescence, kanamycin, BacTiterGlo, confirmation (AID 1900); assay type: functional, organism-based
HEK293 [11] = assay: cells; assay type: functional, cell-based; details: Homo sapiens
Beta-galactosidase [12] = target: T6, Beta-galactosidase; assay: PubChem AID 485352; assay type: functional
HEK293 [13] = assay: cells; assay type: functional, cell-based; details: Homo sapiens; remark: listed apart in the source
HEK293 [14] = assay: NOD2 signaling inhibitors in MDP-stimulated cells, cell-based, uHTS, luminescence (AID 2001); assay type: functional; details: Homo sapiens
[15] = target: T7, Type-1 angiotensin II receptor (Homo sapiens, UniProt P30556); assay: AT1 receptor antagonists, dose response, selectivity assay for APJ receptor antagonist project, cell-based, uHTS hits (AID 463214); assay type: functional;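 note: antagonist potency against angiotensin II stimulated AT1 response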
T7 sequence (P30556 whole entry): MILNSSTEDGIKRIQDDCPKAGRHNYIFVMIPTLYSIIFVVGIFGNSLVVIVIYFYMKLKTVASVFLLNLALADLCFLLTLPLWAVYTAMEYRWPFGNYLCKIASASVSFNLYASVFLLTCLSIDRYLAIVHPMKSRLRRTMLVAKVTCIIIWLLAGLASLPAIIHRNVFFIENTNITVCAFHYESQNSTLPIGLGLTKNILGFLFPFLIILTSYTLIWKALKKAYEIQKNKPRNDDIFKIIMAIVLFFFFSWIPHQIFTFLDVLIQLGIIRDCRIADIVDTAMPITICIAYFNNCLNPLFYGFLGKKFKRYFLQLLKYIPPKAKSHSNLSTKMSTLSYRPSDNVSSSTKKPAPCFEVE

Streptococcus = assay: Group A Streptococcus viability loss, dose response, counter-screen for streptokinase expression inhibitor project, luminescence, BacTiterGlo (AID 1915); assay type: functional, organism-based;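 note: potency for reduction of bacterial viability or growth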
[16] = target: G-protein coupled receptor 55 (Homo sapiens, UniProt Q9Y2T6); assay: GPR55 antagonists, SAR follow-up, counter-screen for GPR35 antagonist project, imaging, image-based (AID 2397); assay type: functional
Chain of G-protein coupled receptor 55 (Q9Y2T6 whole entry): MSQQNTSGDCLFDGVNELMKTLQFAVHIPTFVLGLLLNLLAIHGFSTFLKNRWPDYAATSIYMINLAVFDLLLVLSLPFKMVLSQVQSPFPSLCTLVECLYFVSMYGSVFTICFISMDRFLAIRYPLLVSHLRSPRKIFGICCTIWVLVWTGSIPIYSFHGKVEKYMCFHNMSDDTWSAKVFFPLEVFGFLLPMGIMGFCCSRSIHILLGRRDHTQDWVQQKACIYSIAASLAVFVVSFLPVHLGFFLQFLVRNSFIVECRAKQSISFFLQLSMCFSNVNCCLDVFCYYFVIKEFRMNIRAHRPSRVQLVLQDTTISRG

## CCN(CC)c1ccc(/C=C2\C(=O)c3ccc(C(=O)O)cc3C2=O)cc1
[1]
  EC50: 0.1 µM (active)
[2]
  IC50: 37.7 µM (active)
Troponin, cardiac muscle
  EC50: 0.516 µM (active)
Protein skinhead-1
  IC50: 23.3 µM (active)
[3]
  IC50: 85.4 µM (active)

## CC(=O)Nc1ccc(NC(=O)C(C)OC(=O)c2ccccc2C(=O)c2ccc(Cl)c([N+](=O)[O-])c2)cc1 (stereo unspecified)
[4]
  IC50: > 32 µM (inactive)
Mu-type opioid receptor
  EC50: > 32 µM (inactive)
[5]
  EC50: > 32 µM (inactive)
[6]
  IC50: 8.15 µM (active)
Beta-galactosidase [7]
  EC50: > 31.5 µM (inactive)
[8]
  IC50: 8.71 µM

## COc1cccc(/C=C/c2ccc3cccc(O)c3n2)c1OC
[4]
  IC50: > 32 µM (inactive)
HEK293 [9]
  EC50: > 20 µM (inactive)
Mu-type opioid receptor
  EC50: > 32 µM (inactive)
[10]
  EC50: 1.68 µM (active)
[5]
  EC50: > 32 µM (inactive)
HEK293 [11]
  IC50: 10.6 µM (active)
Beta-galactosidase [12]
  EC50: > 40 µM (inactive)
HEK293 [13]
  IC50: > 20 µM (inactive)
HEK293 [14]
  IC50: 5.45 µM (inactive)
[15]
  IC50: 15.6 µM (active)
[6]
  IC50: > 31.5 µM (inactive)
Beta-galactosidase [7]
  EC50: > 31.5 µM (inactive)
[8]
  IC50: > 32 µM
Streptococcus
  EC50: 7.81 µM (active)

## Cc1ccc(C)c(OCCC(=O)NCCc2ccc(S(N)(=O)=O)cc2)c1
[16]
  IC50: > 32 µM (inactive)
